{
  "source": "patent US8865747B2",
  "about": "“Pioglitazone for use in the treatment of adrenoleukodystrophy” (Fundació Institut D'Investigació Biomèdica de Bellvitge …, priority 2012, dated 2014)",
  "key": {"SIRT1 [1]": {"tested_on": "SIRT1", "assay": "SIRT1 immunoprecipitation and carbonyl (DNPH) measurement in spinal cord", "assay_type": "in vivo, mouse", "conditions": "Abcd1− mice fed 2 months with pioglitazone, 12 months of age, FIG. 13", "procedure": "(§1) Pioglitazone (Actos®) was mixed into AIN-76A chow from Dyets (Bethlehem, Pa.) at 0.012% w/w, corresponding to a dose of 9 mg/kg/day per mice [Yan Q. et al., J. Neurosci. 2003, 23, 7504-7509]. […] .\nSince the specific carbonylated SIRT1 antibody is not available, SIRT1 has been immunoprecipitated to measure carbonyl levels, as earlier described [Caito S. et al., Faseb J. 2010, 24, 3145-3159]. Protein (200 μg) extracted from whole spinal cord in a final volume of 400 μl RIPA buffer was incubated for 1 h with SIRT1 antibody [12193, (Abcam)] ((Abcam, 12193), dilution 1:80). Protein A sepharose (Amersham) was suspended in PBS for 1 h then blocked in BSA (1%) for 1 h. Protein A sepharose (50 μl ) was added to each sample and left overnight at 4° C. on a rotator. The samples are then centrifuged at 13,000 rpm at 4 ° C. for 5 min. […] Neural. 2011, 70, 84-92]."}, "Abcd1-null mice [2]": {"tested_on": "Abcd1-null mice", "assay": "ATP levels, NAD-NADH determination and pyruvate kinase activity in spinal cord", "assay_type": "in vivo, mouse", "conditions": "Abcd1− mice fed 2 months with pioglitazone, 12 months of age", "procedure": "as §1\nTo determine ATP levels, mice were sacrificed by cervical dislocation and spinal cords immediately frozen in liquid nitrogen and stored at −80° C. ATP was extracted with cold perchloric acid (10%) from 10 mg of spinal cord, neutralized with KOH and centrifugated [Khan H. A. et al., J. Biosci. 2003, 28, 379-382]. Then, ATP concentrations were quantified in triplicate per animal using the ATPlite 1 step (PerkinElmer) according to the manufacturer's protocol. Data were normalized to mg of proteins. All assays were performed in triplicate.\nNAD^+ and NADH were quantified by the NAD cycling assay and pyruvate kinase activity was determined by a spectrophotometrical method as previously described [Galino J. et al., Antiox. Redox Signal 2011, 15, 2095-2107]."}, "[3]": {"tested_on": "Abcd1−/Abcd2−/− (DKO) mice", "assay": "Horizontal bar cross test", "conditions": "after 2 months of treatment, FIG. 19", "protocol": "We set up a preclinical trial to assess the effect of pioglitazone on the progression of clinical signs using DKO null mice as the model Animals were randomly assigned to one of the following groups.\nThe bar cross test was carried out using a wooden bar of 100 cm in length and 2 cm in width (diameter). This bar is just wide enough for the mice to stand on with their hind feet hanging over the edge such that any slight lateral misstep will result in a slip. […] Bar cross test was performed basically as previously described [Lopez-Erauskin J. et al., Ann.\nMice were evaluated by the treadmill test and the bar-cross at the start and re-scored after 2 (i.e 15 months of age), and 4 months (i.e. 17 months of age) of the treatment."}, "[4]": {"tested_on": "Abcd1−/Abcd2−/− (DKO) mice", "assay": "Immunohistochemistry / histology of dorsal spinal cord (axonal degeneration)", "conditions": "pioglitazone 4 months (13 to 17 months of age)", "description": "We set up a preclinical trial to assess the effect of pioglitazone on the progression of clinical signs using DKO null mice as the model Animals were randomly assigned to one of the following groups. […] We treated animals for 4 months starting at 13 months of age in order to start treatment at the onset of clinical signs [Lopez-Erauskin J. et al., Ann.\nSpinal cords were harvested from 18 month-old wild type (WT), Abcd1^−/Abcd2^−/− (DKO) and Abcd1^−/Abcd2^−/− fed with pioglitazone for 4 months (DKO+PIO), after perfusion with PFA 4%, basically as described [Lopez-Erauskin J. et al., Ann. […] Spinal cords were embedded in paraffin and serial sections, 5 μm thick, were cut in a transversal or longitudinal plane.\nThe number of abnormal specific profiles was counted at every 10 sections for each particular stain. At least three sections corresponding to the dorsal columns of the spinal cord were analysed per animal and per stain. Results were expressed as mean values±standard deviations.\nImmunohistochemistry experiments were performed."}, "SIRT1 [5]": {"tested_on": "SIRT1", "assay": "SIRT1 fluorometric activity assay on spinal cord protein", "assay_type": "in vivo, mouse", "conditions": "Abcd1− mice fed 2 months with pioglitazone, 12 months of age, FIG. 13", "procedure": "as §1\nWe used a SIRT1 fluorometric assay kit (BIOMOL) based on the generation of a fluorophore via the NADtdependent deacetylation by SIRT1 of its substrate, which is a peptide comprising amino acids 379-382 of human p53 (Arg-His-Lys-Lys(Acetyl) (SEQ ID NO: 7) [Howitz K. T. et al., Nature 2003, 425, 191-196; and Vaziri H. et al., Cell 2001, 107, 149-159]. The assay's fluorescence signal is generated in proportion to the amount of Lys-382 deacetylation [Chabi B. et al., J. Appl. Physiol. 2009, 107, 1730-1735]. Briefly, 25 μg of total protein were incubated with Fluor de Lys-Sirt1 substrate (100 μM) and NAD^+ (100 μM) at 37° C. for 30 min in a final volume of 50 μl. The reaction was stopped by the addition of 50 μl of developer reagent and nicotinamide (2 mM) and the fluorescence was subsequently monitored for 30 min at 360 nm (excitation) and 460 nm (emission)."}, "[6]": {"assay": "Weight and food intake during dietary treatment", "assay_type": "in vivo, mouse", "conditions": "both protocols of treatment (Abcd1-null 2 months; DKO 4 months), 9 mg/kg/day in chow", "procedure": "Pioglitazone (Actos®) was mixed into AIN-76A chow from Dyets (Bethlehem, Pa.) at 0.012% w/w, corresponding to a dose of 9 mg/kg/day per mice [Yan Q. et al., J. Neurosci. 2003, 23, 7504-7509]. […] Neurol. […] Mol. Genet. […] Mol. Genet. […] Mol. Genet. 2005, 14, 3565-3577]."}, "Abcd1-null mice [7]": {"tested_on": "Abcd1-null mice", "assay": "Western blot of mitochondrial and antioxidant proteins in spinal cord", "assay_type": "in vivo, mouse", "conditions": "Abcd1− mice fed 2 months with pioglitazone", "source_text": "The following antibodies were used for Western Blots: anti-mouse NADH-ubiquinol oxidoreductase (NDUFB8: complex I): dilution 1/2000 (Molecular Probes); anti-mouse anti-Porin 31HL (VDAC or Voltage Dependant Anion Channel): dilution 1/1000 (Calbiochem); anti-rabbit DNP: dilution 1/100 (Invitrogen); anti-mouse PGC-1a: dilution 1/1000 (ST1202, Calbiochem); anti-rabbit SIRT1 for mouse: dilution 1/500 (12193, Abcam); anti-rabbit SIRT1 for human: dilution 1/500 (32441, Abcam) and anti-mouse γ-tubulin: dilution 1/5000 (T6557, clone GTU-88, Sigma). Goat anti-rabbit IgG linked to horseradish peroxidase, dilution: 1/15000 (P0448, Dako, Glostrup, Denmark) and Goat anti-mouse IgG linked to horseradish peroxidase, dilution: 1/15000 (G21040, Invitrogen) have been used as secondary antibodies.\nas §1\nTissues were removed from euthanized mice and flash-frozen on liquid nitrogen. Frozen tissues were homogenized in RIPA buffer boiled for 5 min and centrifuged. We measured protein concentration of the supernatant with a BCA (bicinchoninic acid) Protein Assay Kit (Pierce). 10 to 100 μg were loaded onto each lane of 10% polyacrylamide gels for 60 min at […]. Resolved proteins were transferred to nitrocellulose. Proteins were detected with ECL western blotting analysis system (Amersham Biosciences)."}, "Abcd1-null mice [8]": {"tested_on": "Abcd1-null mice", "assay": "Relative gene expression by quantitative RT-PCR in spinal cord", "assay_type": "in vivo, mouse", "conditions": "Abcd1− mice fed 2 months with pioglitazone, 12 months of age, FIG. 12", "procedure": "as §1\nFirst tissues were lysed using Trizol reagent (Invitrogen), then total RNA was extracted using RNeasy Kit (Qiagen). Lysis and extraction were performed according to the manufacturer's instructions. Total DNA from tissues was extracted using Gentra Puregene Tissue Kit (Qiagen) according to the manufacturer's instructions.\n[…] of RNA was transcribed into cDNA using Superscript II reverse transcription reagents in a final volume of 25 μl (Invitrogen). A TaqMan real time PCR was performed within the ABI PRISM 7300HT sequence detection system using the TaqMan Universal PCR master mix and the standardized primers for mouse SIRT1 (Mm00490758) PGC-1α (Mm00447183), PGC-1β (Mm01258518), ERRα (Mm00433143), NRF-1 (Mm00447996), TFAM (Mm00447485), TFB1M (Mm00524825) and TFB2M (Mm01620397). To measure gene expression and mtDNA abundance 0.1 to 0.2 μl of cDNA and 100 ng of DNA were respectively used.\nTo quantify mouse and human mtDNA content, two probes (mouse cytochrome b (cytb) (Gene ID: 17711) and human cytochrome c […] subunit II (COXII) (Gene ID: 4513) were respectively designed (Custom TaqMan Gene Expression Assays; Applied Biosystems). The sequences for mouse cytb primers were: […] (SEQ ID NO: 1) (forward) and […] (SEQ ID NO: 2) (reverse) and the FAM-labeled probe was TTGCAACTATAGCAACAG (SEQ ID NO: 3). The sequences for human COXII primers were: […] (SEQ ID NO: 4) (forward) and […] (SEQ ID NO: 5) (reverse) and the FAM-labeled probe was AAATCTGTGGAGCAAACC (SEQ ID NO: 6). Quantification of mtDNA was referred to nuclear DNA as determined by the amplification of the intronless nuclear gene C/EBPα. (Mouse and human CEBPα are respectively: Mm00514283, Hs00269972.). Each sample was run in duplicate, and the mean value of the duplicate was used to calculate the mRNA expression of the genes of interest which were normalized to that of the reference control (18S, Hs99999901) using the comparative (2^−ΔCt) method, according to the manufacturer's instructions."}, "Abcd1-null mice [9]": {"tested_on": "Abcd1-null mice", "assay": "GC/MS measurement of oxidative lesion markers in spinal cord proteins", "assay_type": "in vivo, mouse", "conditions": "Abcd1− mice fed 2 months with pioglitazone, FIG. 15a", "procedure": "as §1"}, "[10]": {"conditions": "Yamada T. et al. 2000; cited from earlier work"}, "X-ALD patients": {"tested_on": "X-ALD patients", "conditions": "recent study in X-ALD patients; cited from earlier work"}, "[11]": {"conditions": "spinal cord, 12 months of age, FIG. 11"}},
  "note": "Entries after “also recorded” stand apart in the source; their conditions may differ.",
  "data": [
    {"smiles": "CCc1ccc(CCOc2ccc(CC3SC(=O)NC3=O)cc2)nc1", "note": "(racemic) [pioglitazone, 5-(4-[2-(5-ethylpyridin-2-yl)ethoxy]benzyl)thiazolidine-2,4-dione]", "values": [
      {"measurement": "levels of carbonylation on SIRT1 protein (SIRT1 oxidation)", "setting": "SIRT1 [1]", "result": "lowered; also recorded: normalized"},
      {"measurement": "ATP levels", "setting": "Abcd1-null mice [2]; FIG. 14a", "result": "normalised"},
      {"measurement": "NADH levels", "setting": "Abcd1-null mice [2]; FIG. 14b", "result": "normalised"},
      {"measurement": "activity of pyruvate kinase", "setting": "Abcd1-null mice [2]; FIG. 14c", "result": "normalised"},
      {"measurement": "number of slips", "setting": "[3]", "result": "full normalisation"},
      {"measurement": "time used to cross the bar", "setting": "[3]", "result": "full normalisation"},
      {"measurement": "number of reactive astrocytes", "setting": "[4]; FIG. 16", "result": "strikingly reduced to control levels"},
      {"measurement": "number of reactive microglia", "setting": "[4]; FIG. 16", "result": "strikingly reduced to control levels"},
      {"measurement": "accumulation of markers of axonal damage (APP, synaptophysin in axonal swellings)", "setting": "[4]; FIG. 16, 17", "result": "strikingly reduced to control levels"},
      {"measurement": "SIRT1 activity", "setting": "SIRT1 [5]", "result": "rescued; also recorded: normalized"},
      {"measurement": "food intake", "setting": "[6]", "result": "no effect"},
      {"measurement": "weight", "setting": "[6]", "result": "no effect"},
      {"measurement": "GPX1 protein level", "setting": "Abcd1-null mice [7]; FIG. 15b", "result": "normalized"},
      {"measurement": "NDUFB8 protein level", "setting": "Abcd1-null mice [7]; [11]", "result": "increased"},
      {"measurement": "VDAC protein level", "setting": "Abcd1-null mice [7]; [11]", "result": "increased"},
      {"measurement": "NRF1 mRNA", "setting": "Abcd1-null mice [8]", "result": "increased"},
      {"measurement": "SIRT1 expression", "setting": "Abcd1-null mice [8]", "result": "no effect"},
      {"measurement": "TFAM mRNA", "setting": "Abcd1-null mice [8]", "result": "increased"},
      {"measurement": "expression of PGC-1α mRNA", "setting": "Abcd1-null mice [8]", "result": "increased"},
      {"measurement": "AASA content", "setting": "Abcd1-null mice [9]", "result": "normalized"},
      {"measurement": "CEL (glycoxidative) content", "setting": "Abcd1-null mice [9]", "result": "normalized"},
      {"measurement": "GSA content", "setting": "Abcd1-null mice [9]", "result": "normalized"},
      {"measurement": "MDAL (lipoxidative) content", "setting": "Abcd1-null mice [9]", "result": "normalized"}
    ]},
    {"smiles": "CC[C@H](C)C(=O)O[C@H]1C[C@@H](C)C=C2C=C[C@H](C)[C@H](CC[C@@H]3C[C@@H](O)CC(=O)O3)[C@H]21", "note": "[Lovastatin]", "values": [
      {"measurement": "effect in vitro", "setting": "[10]", "result": "some effect"}
    ]},
    {"smiles": "CCCC(CCC)C(=O)O", "note": "[VPA, valproic acid]", "values": [
      {"measurement": "adverse effects", "setting": "X-ALD patients", "result": "adverse effects such as trembling"}
    ]}
  ]
}
